The assay deals with T1, LcpK30 (Streptomyces sp. K30, UniProt Q3L8N0).
T1 construct: gene lcp; monomer; residues 31-403 modelled; haem b
Kind of assay: crystal structure of complex ([…] Å); EPR. It counts as binding. Conditions: open state; imidazole coordinates haem iron as distal axial ligand, replacing Lys167; 0.2 M malate/imidazole pH 7.5 (crystal); 1 mM imidazole (EPR); ferric as isolated.

The source of these data is article PMC5522427, “Structural and Functional Analysis of Latex Clearing Protein (Lcp) Provides Insight into the Enzymatic Cleavage of Rubber” (Scientific Reports, 2017).

T1 sequence (Q3L8N0 31-407): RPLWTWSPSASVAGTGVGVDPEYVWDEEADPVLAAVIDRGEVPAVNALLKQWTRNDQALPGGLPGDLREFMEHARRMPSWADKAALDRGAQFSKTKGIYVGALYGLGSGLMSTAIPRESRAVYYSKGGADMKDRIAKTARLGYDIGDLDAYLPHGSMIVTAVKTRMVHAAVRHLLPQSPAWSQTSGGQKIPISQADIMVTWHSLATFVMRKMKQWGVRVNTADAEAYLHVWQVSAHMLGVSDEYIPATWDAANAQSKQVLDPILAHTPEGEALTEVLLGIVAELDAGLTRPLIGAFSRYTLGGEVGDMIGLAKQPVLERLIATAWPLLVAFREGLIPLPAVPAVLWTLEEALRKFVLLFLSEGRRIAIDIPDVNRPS

As to `c1c[nH]cn1` [imidazole], the “crystal structure of complex (1.48 Å); EPR” value is reported as “the distal axial position at the haem iron was now occupied by an imidazole molecule”.
